Data on 1 compound can be found in patent publication US20050013852A1, “Dermal for amino laevulinic acid” (priority 2000, published 2005).

Structures are written as SMILES.

The conditions of data set [1]: fresh ALA solution, approximate physiological value of 8, after two weeks; cited from earlier work.
Data set [2] in a line: sedimentation (sinking speed) of ALA particles in NE solution. In kind it is physicochemical. The settings on record: sieve fraction 60-90 μm.

`NCC(=O)CCC(=O)O` [ALA, 5-aminolaevulinic acid]: the undecomposed active substance result in data set [1] is given as “approx. 10%”. Further, the “Sinking speed of the ALA particles in solution” value in data set [2] (NE 12 % g/g in solution) was determined as 396 μm/10 s; in data set [2] (NE 18 % g/g in solution), 119 μm/10 s; in data set [2] (NE 24 % g/g in solution), 3 μm/10 s.
